Reference: US10294202B2, “Pyrrolidinones as herbicides” (FMC Corporation, priority 2013, dated 2019)

Legend:
pigweed = experiment: Test A pre-/postemergence herbicide test; type: in vivo, Amaranthus retroflexus
Outline: (§1)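 Scoring was visual, relative to untreated controls, on a 0–100 scale after about 10 greenhouse days. Preemergence treatment used a directed soil spray over seeded loam/sand; postemergence treatment targeted one- to two-leaf plants of 2–10 cm.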

wheat = experiment: Test A pre-/postemergence herbicide test; type: in vivo, Triticum aestivum; details: Postemergence
Outline: as §1

corn [1] = experiment: Test A pre-/postemergence herbicide test; type: in vivo, Zea mays; details: Postemergence
Outline: as §1

rice = experiment: Test B flooded paddy test; type: in vivo, Oryza sativa; details: 500 g ai/ha, Flood; scale of 0 to 100 where 0 is no effect and 100 is complete control
Outline: (§2)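 In-water application to pots flooded 3 cm deep, plants at 2-leaf stage. Held in greenhouse 13–15 days at constant flood depth. Scored 0–100 by eye against controls.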

ducksalad = experiment: Test B flooded paddy test; type: in vivo, Heteranthera limosa; details: 500 g ai/ha, Flood; scale of 0 to 100 where 0 is no effect and 100 is complete control
Outline: as §2

ryegrass, Italian = experiment: Test C pre-/postemergence herbicide test; type: in vivo, Lolium multiflorum
Outline: (§3)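 Response scores range from 0, meaning no effect, to 100, meaning complete control, assigned visually by comparison with controls roughly two weeks (13 to 15 days) after spraying. Applications were made preemergence to seeded loam–sand soil and postemergence to 1- to 4-leaf plants.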

corn [2] = experiment: Test C pre-/postemergence herbicide test; type: in vivo, Zea mays
Outline: as §3

johnsongrass = experiment: Test C pre-/postemergence herbicide test; type: in vivo, Sorghum halepense
Outline: as §3

lambsquarters = experiment: Test C pre-/postemergence herbicide test; type: in vivo, Chenopodium album
Outline: as §3

morningglory = experiment: Test C pre-/postemergence herbicide test; type: in vivo, Ipomoea coccinea
Outline: as §3

nutsedge, yellow = experiment: Test C pre-/postemergence herbicide test; type: in vivo, Cyperus esculentus
Outline: as §3

ragweed = experiment: Test C pre-/postemergence herbicide test; type: in vivo, Ambrosia elatior
Outline: as §3

[3] = 125 g ai/ha, visual rating on 0 to 100 scale (0 no effect, 100 complete control), approx. 10 days
[4] = 500 g ai/ha, 0 to 100 scale (0 no effect, 100 complete control)
[5] = Postemergence, 31 g ai/ha, scale 0 to 100 (0 no effect, 100 complete control)
[6] = Postemergence, 62 g ai/ha, scale 0 (no effect) to 100 (complete control)
[7] = Postemergence, 125 g ai/ha, scale 0 to 100 (0 no effect, 100 complete control)
[8] = Postemergence, 250 g ai/ha, scale 0 to 100 (0 no effect, 100 complete control)
[9] = Preemergence, 31 g ai/ha, scale 0 to 100, 0 is no effect and 100 is complete control
[10] = Preemergence, 62 g ai/ha, scale 0 to 100 (0 no effect, 100 complete control)
[11] = Preemergence, 125 g ai/ha, scale 0 to 100 (0 no effect, 100 complete control)

CN1CC(c2cccc(C(F)(F)F)c2)C(C(=O)Nc2cccc(F)c2F)C1=O (stereo not drawn) [Compound 305]
0: Plant response rating, Pigweed (pigweed; Preemergence, 125 g ai/ha, 0 to 100 scale where 0 is no effect and 100 is complete control) | Plant response rating, Ryegrass, Italian (ryegrass, Italian; [5]) | Plant response rating, Ryegrass, Italian (ryegrass, Italian; [6]) | Plant response rating, Ryegrass, Italian (ryegrass, Italian; [7]) | Plant response rating, Corn (corn [2]; [5]) | Plant response rating, Johnsongrass (johnsongrass; [5]) | Plant response rating, Johnsongrass (johnsongrass; [6]) | Morningglory plant response rating (morningglory; [9]) | Plant response rating, Nutsedge, Yellow (nutsedge, yellow; [5]) | Plant response rating, Nutsedge, Yellow (nutsedge, yellow; [6]) | Plant response rating, Nutsedge, Yellow (nutsedge, yellow; [7]) | Plant response rating, Nutsedge, Yellow (nutsedge, yellow; [8]) | Nutsedge, Yellow plant response rating (nutsedge, yellow; [9]) | Nutsedge, Yellow plant response rating (nutsedge, yellow; [10]) | Plant response rating, Nutsedge, Yellow (nutsedge, yellow; [11]) | Plant response rating, Ragweed (ragweed; [5]) | Plant response rating, Ragweed (ragweed; [6]) | Ragweed plant response rating (ragweed; [9])
5: Plant response rating, Corn (corn [2]; [6])
50: Ryegrass, Italian plant response rating (ryegrass, Italian; [10]) | Plant response rating, Ryegrass, Italian (ryegrass, Italian; [11]) | Plant response rating, Lambsquarters (lambsquarters; [7])
85: Johnsongrass plant response rating (johnsongrass; [10])
20: Plant response rating, Johnsongrass (johnsongrass; [7]) | Plant response rating, Johnsongrass (johnsongrass; [8]) | Plant response rating, Morningglory (morningglory; [6]) | Plant response rating, Morningglory (morningglory; [8])
75: Corn plant response rating (corn [2]; [10]) | Plant response rating, Corn (corn [2]; [11]) | Plant response rating (scale of 0 to 100), Lambsquarters (lambsquarters; Preemergence, 250 g ai/ha) | Plant response rating, Morningglory (morningglory; [7]) | Plant response rating (scale of 0 to 100), Ragweed (ragweed; Preemergence, 250 g ai/ha)
100: Plant response rating, Ducksalad (ducksalad) | Plant response rating (scale of 0 to 100), Nutsedge, Yellow (nutsedge, yellow; Preemergence, 250 g ai/ha)
65: Corn plant response rating (corn [2]; [9]) | Plant response rating, Lambsquarters (lambsquarters; [8]) | Plant response rating (scale of 0 to 100), Morningglory (morningglory; Preemergence, 250 g ai/ha)
70: Plant response rating, Pigweed (pigweed; Postemergence, 500 g ai/ha, 0 to 100 scale (0 no effect, 100 complete control)) | Plant response rating, Wheat (wheat; [4]) | Plant response rating, Corn (corn [1]; [3]) | Plant response rating, Corn (corn [1]; [4]) | Lambsquarters plant response rating (lambsquarters; [10]) | Plant response rating, Lambsquarters (lambsquarters; [11])
40: Pigweed plant response rating (pigweed; Preemergence, 500 g ai/ha, visual rating on 0 to 100 scale (0 no effect, 100 complete control)) | Plant response rating, Corn (corn [2]; [7]) | Plant response rating, Morningglory (morningglory; [11]) | Plant response rating, Ragweed (ragweed; [7])
15: Plant response rating, Rice (rice) | Ryegrass, Italian plant response rating (ryegrass, Italian; [9]) | Ragweed plant response rating (ragweed; [10])
25: Plant response rating, Morningglory (morningglory; [5])
60: Plant response rating, Pigweed (pigweed; Postemergence, 125 g ai/ha, visual rating on 0 to 100 scale (0 no effect, 100 complete control), approx. 10 days) | Plant response rating, Wheat (wheat; [3]) | Plant response rating, Lambsquarters (lambsquarters; [5]) | Lambsquarters plant response rating (lambsquarters; [9])
80: Plant response rating (scale of 0 to 100), Ryegrass, Italian (ryegrass, Italian; Preemergence, 250 g ai/ha) | Plant response rating (scale of 0 to 100), Corn (corn [2]; Preemergence, 250 g ai/ha) | Johnsongrass plant response rating (johnsongrass; [9])
35: Plant response rating, Lambsquarters (lambsquarters; [6]) | Plant response rating, Ragweed (ragweed; [11])
90: Plant response rating, Johnsongrass (johnsongrass; [11]) | Plant response rating (scale of 0 to 100), Johnsongrass (johnsongrass; Preemergence, 250 g ai/ha)
45: Plant response rating, Ryegrass, Italian (ryegrass, Italian; [8]) | Plant response rating, Corn (corn [2]; [8]) | Plant response rating, Ragweed (ragweed; [8])
30: Morningglory plant response rating (morningglory; [10])
